# Measured values: patent publication US20190124918A1, “BIOFILM FORMATION INHIBITOR AND BIOFILM FORMATION INHIBITING COMPOSITION” (KAO CORPORATION, priority 2016, published 2019)
# How the values were obtained:
# [1] = system: biofilm-forming microbe isolated from cooling water taken from a water cooling tower; test: Biofilm inhibition test, quinone-based compound and organic solvent (OD570); type: cell-based; settings: for OD570: alone or added as test solution in Diacetone alcohol, no addition gave 2.15
# Procedure: (§1) A biofilm-forming microbe (microbe providing a OD570 value of 0.3 or more in the test for determining the amount of biofilm in the following section 4-3) isolated from cooling water taken from a water cooling tower was cultured in R2A culture medium at 30° C. for 16 hours while shaking. The turbidity (OD600) of the resultant culture solution was measured. The culture solution was diluted with R2A culture medium to prepare a suspension of 10^3 cfu/mL.
# The suspension of a test microbe prepared in the above section 4-1) was added in individual wells of a 96 well microplate in an amount of 150 μL. Thereafter, the test solution prepared in the above section 2) was add and culture was initiated.
# (§2) The 96 well microplate was subjected to stationary culture performed at 30° C. for 48 hours. The culture solution was removed and the resultant microplate was washed with water. Subsequently, each well was stained with 0.1% crystal violet and 200 μL of ethanol was added. The absorbance (OD570) was measured to obtain the amount of biofilm (BF) formed.
# [2] = system: biofilm-forming microbe isolated from cooling water taken from a water cooling tower; test: Biofilm inhibition test, quinone-based compound and chelating agent (OD570); type: cell-based; settings: Experiment No. 19: Toluquinone 0 ppm, Citric acid 10 ppm; 0 ppm/0 ppm gave 0.329
# Procedure: as §1, with “(microbe showing” for “(microbe providing”, “biofilm (the” for “biofilm in the”, “section 2-4))” for “section 4-3)”
# (§3) Predetermined amounts of p-toluquinone and HEDP were weighed and solvent (MDG) was added to prepare a composition. Since citric acid and EDTA were not dissolved in MDG, they were directly added in culture solutions; at the same time, p-toluquinone was directly added to the culture solutions.
# The suspension of a test microbe prepared in the above section 2-1) was added in individual wells of a 96 well microplate in an amount of 150 μL, and then, the test solutions prepared in the above section 2-2) was each added and culture was initiated.
# as §2, with “After the 96” for “The 96”, “48 hours, the” for “48 hours. The”
# [3] = Dissolution in solvent (MDG) when preparing compositions; type: physicochemical; settings: preparation of compositions
# Procedure: as §3
# [4] = system: cooling water taken from a water cooling tower; test: Aqueous system model (annular reactor): amount of biofilm formed on test pieces (OD570); type: cell-based; settings: Test Example 5; same procedure as Test Example 4; solvent control finally beyond 1.0
# Procedure: (§4) Biofilm formation inhibitory activity of p-toluquinone (Tokyo Kasei) was evaluated by an aqueous system model using an annular reactor (Art Science Co., Ltd.) having a 100 mL-volume culture tank. In the culture tank of the annular reactor, a cylindrical rotating body rotating at a speed of 160 rounds per minute was installed. To the rotating body, 12 test pieces were attached in advance. These test pieces were taken out at predetermined time intervals and biofilm formed on the test pieces was quantified. From a water cooling tower provided on a building rooftop and actually used, cooling water was taken and supplied to the annular reactor culture vessel (maintained at 30° C.) at a flow rate of 10 mL per minute; at the same time, an ethanol solution (15 g/L) of p-toluquinone was separately supplied to the annular reactor culture vessel by a syringe pump YSP-201 (manufactured by YMC) at a flow rate of 10 μL per minute (p-toluquinone concentration in cooling water in the culture tank was 15 ppm). The test pieces (n=2) taken out from the culture tank at predetermined time intervals were stained with 0.1% crystal violet, thoroughly washed twice with physiological saline and recovered in ethanol (15 mL). The absorbance (OD570) was measured to obtain the amount of the biofilm formed. […] Thereafter, the number of bacteria cells was measured. […]
# [5] = system: Pseudomonas PAO1 strain (ATCC 15692); test: Growth of test microbe (turbidity OD600), 96-well microplate culture; type: cell-based; settings: Pseudomonas; for inhibition at 22 ppm: final concentration 22 ppm; for inhibition at 44 ppm: final concentration 44 ppm; for inhibition at 89 ppm: final concentration 89 ppm; for inhibition at 133 ppm: final concentration 133 ppm; for inhibition at 155 ppm: final concentration 155 ppm; for inhibition at 177 ppm: final concentration 177 ppm
# Procedure: (§5) Pseudomonas PAO1 strain (ATCC 15692) was subjected to stationary culture performed in LB culture medium (Lysogeny Broth; manufactured by Becton Dickinson) at 37° C. for 24 hours. The turbidity (OD600) of the culture solution was measured. The culture solution was diluted with Mueller Hinton Broth (BBL made) to prepare a suspension (15 mL) having a turbidity (OD600) of 1/10^6.
# To each of the wells of a 96-well microplate (351172; manufactured by Japan Becton Dickinson), 6 μL of DMSO (Tokyo Chemical Industry Co. Ltd) and an ethanol solution (1 μL, 3 μL or 5 μL) of a test compound were added. After that, the microplate was allowed to stand still at room temperature for 5 hours to evaporate ethanol. The suspension of Pseudomonas microbe prepared in the above step 1) was added in an amount of 145 μL per well and culture was initiated. As the test compound, 2-methylhydroquinone (Sigma Aldrich) and p-toluquinone (Tokyo Kasei) were used. As a reference compound, sodium hypochlorite (manufactured by Wako Pure Chemical Industries Ltd.) was used. As a control, an ethanol solvent (EtOH control) alone was used. The concentration of the test compound in the ethanol solution is 1,000 ppm or 10,000 ppm and the final concentration of the test compound in the culture solution was about from 7 to 333 ppm.
# (§6) After the 96-well microplate was subjected to stationary culture performed at 30° C. for 24 hours, turbidity (OD600) was measured to check growth. Subsequently, individual wells were stained with 0.1% crystal violet and thoroughly washed twice with physiological saline. To each well, 200 μL of ethanol was added and the absorbance (OD570) was measured to obtain the amount of the biofilm formed.
# Compounds listed in Table 3 were each added to a test microbe and culture was conducted by the same procedure as in Test Example 1 and the amount of growth (OD600) and the amount of biofilm formed (OD570) were measured. For compounds a, b, c, f, h, i, J and k, 20 mM ethanol solutions were prepared; whereas for compounds d, e, g, 5 mM ethanol solutions were prepared. The solutions were each added to a 96-well microplate in an amount of 1 to 8 μL and evaluation was made. The final concentrations of the individual compounds are described in Table 3.
# (§7) Growth inhibition rates relative to the control (ethanol alone) were calculated based on OD600 values measured and in accordance with the following expression. In addition, biofilm (BF) formation inhibition rates relative to the control (ethanol alone) were calculated based on OD570 values and in accordance with the following expression:
# Growth inhibition (%)=(1−(compound addition group OD600/control group OD600))×100
# (§8) As a control, an ethanol solvent alone was used (EtOH control). The concentrations of test compounds in the ethanol solution were as follows: test compound 1: 20 mM, test compounds 2 to 7: 100 mM. To each of the wells of a 96-well microplate (351172; manufactured by Japan Becton Dickinson), 6 μL of DMSO (Tokyo Kasei) and an ethanol solution of each test compound (1 to 8 μL) were added and then the microplates were allowed to stand still at room temperature for 5 hours to evaporate ethanol. A suspension solution of a Pseudomonas microbe prepared in the same procedure as in Test Example 1, 1) was added in an amount of 145 μL per well and culture was initiated.
# as §6, with “culture” for “culture performed”, “formed. The growth inhibition rate and biofilm (BF) formation inhibition rate were calculated based on OD600 and OD570 values measured and in accordance with the expressions used in Test Example 2.” for “formed.”
# [6] = system: cooling water taken from a water cooling tower; test: Aqueous system model (annular reactor): number of bacterial cells in water at inlet and outlet (R2A agar); type: cell-based; settings: Test Example 5; same procedure as Test Example 4; solvent control also about 10^4
# Procedure: as §4
# [7] = system: Pseudomonas PAO1 strain (ATCC 15692); test: Amount of biofilm formed (crystal violet, OD570), 96-well microplate culture; type: cell-based; settings: Pseudomonas, read-out: BF inhibition (%); for inhibition at 22 ppm: final concentration 22 ppm; for inhibition at 44 ppm: final concentration 44 ppm; for inhibition at 89 ppm: final concentration 89 ppm; for inhibition at 133 ppm: final concentration 133 ppm; for inhibition at 155 ppm: final concentration 155 ppm; for inhibition at 177 ppm: final concentration 177 ppm
# Procedure: as §5, with “1/10^6. […]” for “1/10^6.”
# as §7
# BF inhibition (%)={1−(compound addition group OD570/control group OD570)}×100
# as §8
# as §6, with “culture” for “culture performed”, “formed. The growth inhibition rate and biofilm (BF) formation inhibition rate were calculated based on OD600 and OD570 values measured and in accordance with the expressions used in Test Example 2.” for “formed.”
# [8] = system: B. coli; settings: to B. coli; Non Patent Literature 4; cited from earlier work
structure (smiles),measurement,setting,value
CCCCCCc1ccc(O)cc1O [4-Hexylresorcinol],OD570,[1]; 4-Hexylresorcinol 10 ppm,1.49
same,OD570,[1]; 4-Hexylresorcinol 20 ppm,0.10
O=C(O)CC(O)(CC(=O)O)C(=O)O [Citric acid],OD570,[2],0.261
same,dissolution in MDG (diethylene glycol monomethyl ether),[3],not dissolved
"CCCCc1ccc(O)cc1O [Compound 1, 4-Butylresorcinol]",amount of the biofilm formed (OD570),[4],≤ 0.4
same,inhibition at 22 ppm,[5]; Test Example 3,< 0%
same,inhibition at 44 ppm,[5]; Test Example 3,< 0%
same,inhibition at 89 ppm,[5]; Test Example 3,< 0%
same,inhibition at 133 ppm,[5]; Test Example 3,< 0%
same,inhibition at 155 ppm,[5]; Test Example 3,42.8%
same,inhibition at 177 ppm,[5]; Test Example 3,32.7%
same,number of bacterial cells at the inlet or outlet of the reactor,[6],about 10^4 cells/mL
same,inhibition at 22 ppm,[7]; Test Example 3,0.5%
same,inhibition at 44 ppm,[7]; Test Example 3,18.3%
same,inhibition at 89 ppm,[7]; Test Example 3,4.5%
same,inhibition at 133 ppm,[7]; Test Example 3,12.9%
same,inhibition at 155 ppm,[7]; Test Example 3,54.9%
same,inhibition at 177 ppm,[7]; Test Example 3,45.9%
"O=C(O)CN(CCN(CC(=O)O)CC(=O)O)CC(=O)O [EDTA, Ethylenediaminetetraacetic acid]",dissolution in MDG (diethylene glycol monomethyl ether),[3],not dissolved
"CC(C)(C)c1cc(O)ccc1O [c, tert-Butylhydroquinone]",minimum inhibitory concentration (MIC),[8],512 ppm
same,inhibition at 22 ppm,[5],< 0%
same,inhibition at 44 ppm,[5],5.3%
same,inhibition at 89 ppm,[5],9.5%
same,inhibition at 133 ppm,[5],< 0%
same,inhibition at 155 ppm,[5],11.8%
same,inhibition at 177 ppm,[5],13.3%
same,inhibition at 22 ppm,[7],34.8%
same,inhibition at 44 ppm,[7],22.5%
same,inhibition at 89 ppm,[7],32.5%
same,inhibition at 133 ppm,[7],50%
same,inhibition at 155 ppm,[7],69.3%
same,inhibition at 177 ppm,[7],64.8%
OCCOCCO [diethylene glycol],decrease of BF formation inhibitory effect of the quinone-based compound by the organic solvent (in words),"[1]; from the results in Table 13, among the organic solvents tested",lowest
